≈ marks a conversion by molar mass, not a printed value.

This note sets out measurements from US20140171438A1, “Hybrid Compounds And Methods Of Making And Using The Same” (CELLCEUTIX CORPORATION, priority 2012, published 2014).

The nature of data set [1]: Cytotoxicity, colorimetric tetrazolium assay. The class given is cell-based. The conditions noted are these: one hour with compound in serum-free media. Here is the method:
Cytotoxicity of the compounds was evaluated in a colorimetric assay using a transformed human liver cell line (HepG2, HB-8065) and an embryonic mouse cell line (NIH/3T3 cells, CRL-1658). This assay measures the bioreduction of a novel tetrazolium compound to a soluble formazan product by viable cells. HepG2 cells were seeded in 96 well plates at 2×10^4 cells/well in MEM medium with 10% fetal bovine serum (FBS) for 24 hours prior to use. NIH/3T3 cells were seeded in 96 well plates at 2×10^4 cells/well in DMEM medium with 10% bovine calf serum (BCS) 24 hours prior to use. Cell monolayers were rinsed in serum-free media and incubated for one hour with the compound in serum-free media. After incubation, the media was replaced with serum supplemented media and live cells were measured using the Cell Titer 96 Aqueous […] (Promega, Madison, Wis.). EC50 values were determined using a four parameter logistic equation: Y=Bottom+(Top−Bottom)/(1+10̂((Log EC50−X)*HillSlope)). Actual results from a representative cytotoxicity assay are shown below in Table 2. Data is expressed as EC50 in μg/mL.

The test system of data set [2] is Enterococcus faecalis ATCC 29212. Nature of the data set: Antimicrobial activity, MIC, modified microbroth dilution. The class given is cell-based. To be noted: ATCC29212, E. faecalis (29212), 18 hours incubation, read-out: MIC (expressed as MIC50) E. faecalis. The procedure:
(§1) The compounds were screened for antimicrobial activity against a number of ATCC bacterial strains. Minimum Inhibitory Concentrations (MIC) of each of the compounds were determined using standard CLSI procedures modified by Hancock protocol against E. Coli ATCC 25922, Staphylococcus aureus ATCC 27660, Enterococcus faecalis ATCC 29212, Pseudomonas aeruginosa ATCC 10145, and Klebsiella pneumoniae ATCC 13883.
(§2) This procedure is a modification of the standard microbroth dilution assay recommended by the National Committee for Clinical Laboratory Standards (NCCLS) which has been developed for determining in vitro antimicrobial activities of cationic agents (Steinberg et al., Antimicrob. Agents Chemother., 1997, 41, 1738; and Yan et al., Antimicrob. Agents Chemother., 2001, 45, 1558). The modifications were made to minimize loss of the antimicrobial agent due to adsorption onto glass or plastic surfaces and by precipitation at high concentrations.
(§3) Three mL of Mueller-Hinton II Broth (cation-adjusted) was inoculated with 5 μL of frozen bacterial stock and incubated at 37° C. on a shaker platform (at 250 rpm) overnight. Compound stock solutions were prepared in DMSO and serial two-fold dilutions of compound were made in 0.01% acetic acid, 0.2% bovine serum albumin directly in the wells of the polypropylene plate at 10 μL/well. […] All samples were performed in duplicate. The overnight bacteria suspension was diluted to approximately 10^6 cfu/mL and inoculated into a polypropylene (Costar) 96-well round bottom plate (90 μL volumes). One set of control wells included broth-only samples with dilution buffer for testing sterility and providing blank values for the assay readings. Vehicle-control wells containing the bacterial suspension with DMSO (no compound) were also included. Following the overnight incubation (18 hours), cell growth was assessed by observing the presence of “acceptable growth”, defined by NCCLS as a ≧2 mm button or definite turbidity.
(§4) Actual results from a representative MIC assay are shown below in Table 1. Data is expressed as MIC50 in μg/mL. The bacterial isolates were as follows: E. coli (25922); S. aureus (27660); E. faecalis (29212); P. aeruginosa (10145); and K. pneumoniae (13883).

Data set [3] has as its system Staphylococcus aureus ATCC 27660. The data set is described as above. Type of data set: cell-based. The conditions noted are these: ATCC27660, S. aureus (27660), 18 hours incubation, read-out: MIC (expressed as MIC50) S. aureus. Here is the method:
as §1, §2, §3, §4

Data set [4] concerns Pseudomonas aeruginosa ATCC 10145. The description is as above. The class given is cell-based. The conditions noted are these: ATCC10145, P. aeruginosa (10145), 18 hours incubation, read-out: MIC (expressed as MIC50) P. Aeruginosa. The procedure: as §1, §2, §3, §4
For data set [5], the system named is Klebsiella pneumoniae ATCC 13883. Described as above. The class given is cell-based. The conditions noted are these: ATCC13883, K. pneumoniae (13883), 18 hours incubation, read-out: MIC (expressed as MIC50) K. Pnuemnoiae. The procedure:
as §1, §2, §3, §4

Data set [6] concerns E. Coli ATCC 25922. The description is as above. The conditions noted are these: Escherichia coli, ATCC25922; E. coli (25922); 18 hours incubation; read-out: MIC (expressed as MIC50) E. coli. The class given is cell-based. Here is the method:
as §1, §2, §3, §4

The test system of data set [7] is MRSA ATCC 33591. Put plainly: Anti-biofilm activity, minimum biofilm eradication concentration (MBEC). The conditions noted are these: MRSA ATCC 33591 biofilm on filter paper disks; 24 hours challenge. Type of data set: cell-based, Staphylococcus aureus. Here is the method: The in vitro activity against biofilm was carried out by following the protocol for biofilm development and challenge using filter paper disks and 24-well plates. On day one, a tryptic soy agar plate (TSA) was streaked for MRSA isolation. On the second day a single colony of MRSA was grown in about 5 mL of tryptic soy broth (TSB). Filter papers were punched and autoclaved in 96-well plate. On the third day, a single filter paper disk was placed in each well of 24-well plate. The plate was inoculated with 300 μL/well of 0.01 adjusted OD600 bacteria inoculum in TSB supplemented with 1% glucose and 1.6% NaCl. The cells were allowed to grow for 48 hours on a shaker at 37° C. On day five, the challenge plate(s) were made in a 24-well plate(s), using eppendorf tubes to make dilutions and aliquoted into designated wells. The wash plates were filled in each well of a 24-well plate with 500 μL 0.9% saline. The disks were removed with forceps from the growth plate to the wash plate to challenge plate, flaming in between or where needed. Once disks are in challenge plate, incubated for 24 hours on shaker at 37° C. […] On day seven, the colonies were counted.
The actual MBEC of Compound 113 against MRSA ATCC 33591 was determined to be 32 μg/mL.

Setting [8] is: mouse, NIH/3T3 cells (CRL-1658).

Consider `N=C(N)NCCCCC(=O)Nc1cc(C(F)(F)F)cc(NC(=O)Nc2ccc3nc(NC(=O)Nc4cc(C(F)(F)F)cc(NC(=O)CCCCNC(=N)N)c4SCCN)sc3c2)c1SCCN` [Compound 111, N-[2-(2-aminoethylsulfanyl)-3-[[2-[[2-(2-aminoethylsulfanyl)-3-(5-guanidinopentanoylamino)-5-(trifluoromethyl)phenyl]carbamoylamino]-1,3-benzothiazol-6-yl]carbamoylamino]-5-(trifluoromethyl)phenyl]-5-guanidino-pentanamide], for which the 50% effective concentration (EC50) at 1 h in data set [1] (human, HepG2 cells (HB-8065)) stood at 54 µg/mL (≈ 53.9 µM); in data set [1] (setting [8]), 50.1 µg/mL (≈ 50 µM). Further, the MIC50 in data set [2] was found to be 3.13 µg/mL (≈ 3.12 µM); in data set [3] it was 0.195 µg/mL (≈ 0.195 µM); in data set [4], 12.5 µg/mL (≈ 12.5 µM); in data set [5], 3.13 µg/mL (≈ 3.12 µM); in data set [6], 3.13 µg/mL (≈ 3.12 µM).
On to `N=C(N)NCCCCC(=O)Nc1cc(C(F)(F)F)cc(NC(=O)Nc2ccc(Oc3cc([N+](=O)[O-])cc(C(F)(F)F)c3)cc2)c1SCCN` [Compound 100, (4-(2-(2-aminoethylthio)-3-(3-(4-(3-(trifluoromethyl)-5-nitrophenoxy)phenyl)ureido)-5-(trifluoromethyl)phenylcarbamoyl)butyl)guanidine], for which the concentration giving a half-maximal response (EC50) at 1 h in data set [1] (human, HepG2 cells (HB-8065)) was 396 µg/mL (≈ 553 µM); in data set [1] (setting [8]), 56.2 µg/mL (≈ 78.4 µM). Moreover, the MIC50 worked out at 50 µg/mL (≈ 69.8 µM) in data set [2]; 25 µg/mL (≈ 34.9 µM) in data set [3]; 50 µg/mL (≈ 69.8 µM) in data set [4]; 50 µg/mL (≈ 69.8 µM) in data set [5]; 50 µg/mL (≈ 69.8 µM) in data set [6].
As for `N=C(N)NCCCCC(=O)Nc1cc(C(F)(F)F)cc(NC(=O)Nc2ccc(Oc3ccc(NCCN)c(C(F)(F)F)c3)c(CCCN)c2)c1SCCN` [Compound 108, N-[3-[[4-[4-(2-aminoethylamino)-3-(trifluoromethyl)phenoxy]-3-(3-aminopropyl)phenyl]carbamoylamino]-2-(2-aminoethylsulfanyl)-5-(trifluoromethyl)phenyl]-5-guanidino-pentanamide], the EC50 at 1 h in data set [1] (human, HepG2 cells (HB-8065)) amounted to 395 µg/mL (≈ 502 µM); in data set [1] (setting [8]) it was 186 µg/mL (≈ 236 µM). For the same compound, the MIC50 is 1.56 µg/mL (≈ 1.98 µM) in data set [2]; 3.13 µg/mL (≈ 3.98 µM) in data set [3]; 6.25 µg/mL (≈ 7.94 µM) in data set [4]; 3.13 µg/mL (≈ 3.98 µM) in data set [5]; 3.13 µg/mL (≈ 3.98 µM) in data set [6].
With `N=C(N)NCCCC(=O)Nc1cc(C(F)(F)F)cc(NC(=O)Nc2ccc3nc(-c4ccc(NCCCN)cc4)sc3c2)c1SCCN` [Compound 110, N-[2-(2-aminoethylsulfanyl)-3-[[2-[4-(3-aminopropylamino)phenyl]-1,3-benzothiazol-6-yl]carbamoylamino]-5-(trifluoromethyl)phenyl]-4-guanidino-butanamide], the EC50 at 1 h in data set [1] (human, HepG2 cells (HB-8065)) amounted to 49.9 µg/mL (≈ 71 µM); in data set [1] (setting [8]), 50.7 µg/mL (≈ 72.1 µM). Moreover, the MIC50 in data set [2] was found to be 1.56 µg/mL (≈ 2.22 µM); in data set [3] it was 0.098 µg/mL (≈ 0.139 µM); in data set [4], 6.25 µg/mL (≈ 8.89 µM); in data set [5] it was 3.13 µg/mL (≈ 4.45 µM); in data set [6], 1.56 µg/mL (≈ 2.22 µM).
Regarding `N=C(N)NCCCCC(=O)Nc1cc(C(F)(F)F)cc(NC(=O)Nc2ccc(Oc3cc(NCCN)cc(C(F)(F)F)c3)cc2)c1O[C@@H]1CCNC1` [Compound 104], the EC50 at 1 h in data set [1] (human, HepG2 cells (HB-8065)) was determined as 148 µg/mL (≈ 200 µM); in data set [1] (setting [8]), 82.7 µg/mL (≈ 112 µM). Also, the MIC50 in data set [2] was 3.13 µg/mL (≈ 4.23 µM); in data set [3] it was 0.049 µg/mL (≈ 0.0662 µM); in data set [4], 6.25 µg/mL (≈ 8.45 µM); in data set [5] it was 3.13 µg/mL (≈ 4.23 µM); in data set [6], 3.13 µg/mL (≈ 4.23 µM).
Regarding `NCCCc1cc(NC(=O)Nc2ccc(SCCN)c(C(F)(F)F)c2)ccc1Oc1ccc(NCCN)c(C(F)(F)F)c1` [Compound 114, 1-[4-[4-(2-aminoethylamino)-3-(trifluoromethyl)phenoxy]-3-(3-aminopropyl)phenyl]-3-[4-(2-aminoethylsulfanyl)-3-(trifluoromethyl)phenyl]urea], the 50% effective concentration (EC50) at 1 h worked out at 238 µg/mL (≈ 377 µM) in data set [1] (human, HepG2 cells (HB-8065)) and 160 µg/mL (≈ 254 µM) in data set [1] (setting [8]). The MIC50 in data set [2] came to 1.56 µg/mL (≈ 2.47 µM); in data set [3] it was 1.56 µg/mL (≈ 2.47 µM); in data set [4] it was 3.13 µg/mL (≈ 4.96 µM); in data set [5], 12.5 µg/mL (≈ 19.8 µM); in data set [6] it was 6.25 µg/mL (≈ 9.91 µM).
`NCCCc1cc(NC(=O)Nc2cc(C(F)(F)F)c(SCCN)cc2SCCN)ccc1Oc1ccc(NCCN)c(C(F)(F)F)c1` [Compound 113, 1-[4-[4-(2-aminoethylamino)-3-(trifluoromethyl)phenoxy]-3-(3-aminopropyl)phenyl]-3-[2,4-bis(2-aminoethylsulfanyl)-5-(trifluoromethyl)phenyl]urea]: the EC50 at 1 h is 191 µg/mL (≈ 271 µM) in data set [1] (human, HepG2 cells (HB-8065)) and 142 µg/mL (≈ 201 µM) in data set [1] (setting [8]). Also, the MIC50 in data set [2] came to 0.78 µg/mL (≈ 1.11 µM); in data set [3] it was 1.56 µg/mL (≈ 2.21 µM); in data set [4] it was 3.13 µg/mL (≈ 4.43 µM); in data set [5], 3.13 µg/mL (≈ 4.43 µM); in data set [6], 3.13 µg/mL (≈ 4.43 µM). Further, the MBEC in data set [7] was 32 µg/mL.
For the compound `N=C(N)NCCCCC(=O)Nc1cc(C(F)(F)F)cc(NC(=O)Nc2ccc(Oc3cc(NCCN)cc(C(F)(F)F)c3)cc2)c1SCCN` [Compound 106, (4-(2-(2-aminoethylthio)-3-(3-(4-(3-(2-aminoethylamino)-5-(trifluoromethyl)phenoxy)phenyl)ureido)-5-(trifluoromethyl)phenylcarbamoyl)butyl) guanidine], the concentration giving a half-maximal response (EC50) at 1 h in data set [1] (human, HepG2 cells (HB-8065)) stood at 61.8 µg/mL (≈ 84.7 µM); in data set [1] (setting [8]), 52.6 µg/mL (≈ 72.1 µM). Also, the MIC50 in data set [2] stood at 1.56 µg/mL (≈ 2.14 µM); in data set [3] it was 0.195 µg/mL (≈ 0.267 µM); in data set [4] it was 3.13 µg/mL (≈ 4.29 µM); in data set [5], 1.56 µg/mL (≈ 2.14 µM); in data set [6] it was 0.78 µg/mL (≈ 1.07 µM).
